From patent publication US9212196B2, “Hypophosphorous acid derivatives having antihyperalgic activity and biological applications thereof” (UNIVERSITE PARIS DESCARTES, priority 2011, dated 2015)

System: CCI neuropathic pain model
Assay: Paw pressure test in CCI neuropathic pain model in rats
Format: in vivo, rat
Settings: FIG. 7 legend, model not named
Protocol: After the induction period of the neuropathy or inflammation, various amounts of derivative 2 dissolved in serum have been injected in rats, (from 0.5 to 15 μg/rat, i.t. from 1 to 30 mg/kg, i.p.) on time-course of vocalization threshold to paw pressure. The results obtained on healthy animals are given on FIG. 1. They are expressed by the time course curves of means+/-SEM of vocalization threshold in grams (n=6-8 rats per group) (A) or by the area under the curve (B). Morphine (10 μg/rat, i.t.) is used as a positive control. […] FIG. 4 illustrates the effect of intrathecal administration of derivative 2 on the vocalization threshold to paw pressure in the CCI neuropathic pain model (effect of derivative 2 (1, 5, 10 μg/rat, i.t.) on time-course of vocalization threshold to paw pressure). Gabapentin (100 mg/kg, p.o.) is used as a positive control. […] The effect of intrathecal administration of derivative 2 (10 μg/rat, i.t.) on the vocalization threshold to paw pressure in the CCI neuropathic pain model after mGluR4 or mismatch ODN treatment is illustrated by FIG. 4. […] The animals were submitted to the paw pressure test previously described by Randall and Selitto (1957). Nociceptive thresholds, expressed in grams (g), were measured with a Ugo Basile analgesimeter (Apelex, tip diameter of the probe: 1 mm, weight: 30 g) by applying an increasing pressure to the right hind paw of rats until a squeak (vocalization threshold) was obtained (cut-off was 750 g except carrageenan treated animals for which the cut-off was 500 g). The treatments were done after the measurement of two consecutive stable vocalization threshold values and their effects were assessed 15, 30, 45, 60, 90, and 120 min after. Unilateral peripheral mononeuropathy was induced according to the method described by Bennett and Xie (1988). Briefly, after determining vocalization thresholds, rats were anesthetized with sodium pentobarbital (50 mg/kg i.p.) and four chromic gut (5-0) ligatures were tied loosely (with about 1-mm spacing) around the right common sciatic nerve. The nerve was constricted to a barely discernible degree, so that circulation through the epineurial vasculature was not interrupted. Only animals presenting a decrease ≧15% of the presurgery value of vocalization threshold were selected, i.e., 90% of ligated animals (presurgery value: 379±7 g, pre-drug value: 188±7 g). Intrathecal injections were performed, under isoflurane anesthesia (4% induction, 2% maintenance), as previously described (Mestre et al., 1994). Briefly, the anesthetized rat was held in one hand by the pelvic girdle and a 25-gauge X1-inch needle connected to a 25 μL Hamilton syringe was inserted into the subarachnoidal space between lumbar vertebrae L5 and L6, until a tail flick was elicited. The syringe was held in position for few seconds after the injection of a volume of 10 μL/rat. AS ODN was designed based on rat mGluR4 sequence in regions lacking known splice variants. […]. One ODN with scramble arrangement in the base composition compared to the 18-mer specific as was used as control for sequence-independent effects of ODN treatments. […] Pain scores were determined using standard methods in strict conformity with ethical standards (Zimmermann M., 1983) before ODN treatments and then on day 4 in the afternoon. […]

In the case of NC1(C(=O)O)C[C@H](C(=O)O)[C@H](C(=O)O)C1 (stereo partly shown) [ACPT-I, reference compound], the “mechanical antihyperalgesia after knockdown of spinal mGlu4 expression by antisense oligonucleotides” value is reported as “reduces mechanical antihyperalgesia”.
